# Patent US8952024B2, “Herbicidal pyrimidone derivatives” (E I du Pont de Nemours and Company, priority 2009, dated 2015)
# How the values were obtained:
# Assay type in all cases: in vivo
# [1] = tested on: giant foxtail (Setaria faberii); experiment: Test B pre-/postemergence plant response; settings: for Foxtail, Giant plant response rating (0 to 100 scale): 62 g ai/ha, 0 is no effect, 13 to 15 days
# Method in brief: (§1)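 Pre-em in loam/sand; post-em at 1–4 leaf (2–18 cm) in peat mix. Solvent + surfactant formulation. Greenhouse 13–15 d; visual % control vs untreated, 0–100.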
# [2] = tested on: Italian ryegrass (Lolium multiflorum); experiment: Test B pre-/postemergence plant response; settings: for Ryegrass, Italian plant response rating (0 to 100 scale): 62 g ai/ha, 0 is no effect, 13 to 15 days
# Method in brief: as §1
# [3] = tested on: ragweed (common ragweed, Ambrosia elatior); experiment: Test B pre-/postemergence plant response; settings: for Ragweed plant response rating (0 to 100 scale): 62 g ai/ha, 0 is no effect, 13 to 15 days
# Method in brief: as §1
# [4] = tested on: umbrella sedge (Cyperus difformis); experiment: Test B flooded paddy test; settings: for Sedge, Umbrella plant response rating: Flood, 31 g ai/ha, scale 0 to 100 (0 no effect, 100 complete control)
# Method in brief: (§2)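 Greenhouse-held for 13 to 15 days, treated pots were compared visually with controls and scored 0–100 (0, no effect). Treatment had been made into paddy water kept at 3 cm above the soil, with plants at the 2-leaf stage.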
# [5] = tested on: barnyardgrass (Echinochloa crus-galli); experiment: Test B flooded paddy test; settings: for Barnyardgrass plant response rating: Flood, 31 g ai/ha, scale 0 to 100 (0 no effect, 100 complete control)
# Method in brief: as §2
# [6] = tested on: ducksalad (Heteranthera limosa); experiment: Test B flooded paddy test; settings: for Ducksalad plant response rating: Flood, 31 g ai/ha, scale 0 to 100 (0 no effect, 100 complete control)
# Method in brief: as §2
# rice (Oryza sativa) = experiment: Test B flooded paddy test; settings: for Rice plant response rating: Flood, 31 g ai/ha, scale 0 to 100 (0 no effect, 100 complete control)
# Method in brief: as §2
# [7] = tested on: canarygrass (Phalaris minor); experiment: Test B postemergence plant response; settings: for Canarygrass plant response rating (0 to 100 scale): 62 g ai/ha, 0 is no effect, 13 to 15 days
# Method in brief: (§3)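 Plants grown in peat/vermiculite medium were sprayed postemergence at 2–18 cm height (1- to 4-leaf stage). After 13–15 days in the greenhouse, response was rated visually against untreated controls on a 0–100 scale (0 no effect, 100 complete control).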
# [8] = tested on: windgrass (Apera spica-venti); experiment: Test B postemergence plant response; settings: for Windgrass plant response rating (0 to 100 scale): 62 g ai/ha, 0 is no effect, 13 to 15 days
# Method in brief: as §3
# [9] = tested on: chickweed (Stellaria media); experiment: Test B postemergence plant response; settings: for Chickweed plant response rating (0 to 100 scale): 62 g ai/ha, 0 is no effect, 13 to 15 days
# Method in brief: as §3
# [10] = tested on: winter barley (Hordeum vulgare); experiment: Test B postemergence plant response; settings: for Barley plant response rating (0 to 100 scale): 62 g ai/ha, 0 is no effect, 13 to 15 days
# Method in brief: as §3
# [11] = postemergence, 100 is complete control
# [12] = 31 g ai/ha, postemergence, scale 0 to 100, 0 is no effect, 100 is complete control
# [13] = Postemergence, 125 g ai/ha, scale 0 to 100 (0 no effect, 100 complete control)
# [14] = Postemergence, 250 g ai/ha, scale 0 to 100 (0 no effect, 100 complete control)
# [15] = 250 g ai/ha, flooded paddy test, visual rating on 0 to 100 scale (0 no effect, 100 complete control) after 13 to 15 days
# [16] = Flood (flooded paddy test), 62 g ai/ha, scale of 0 to 100 where 0 is no effect and 100 is complete control, 13 to 15 days
# [17] = Flood (flooded paddy test), 125 g ai/ha, scale 0 to 100, 0 is no effect, 100 is complete control, 13 to 15 days
smiles,measurement,setting,value
"COCCn1c(-c2ccsc2)ncc(C(=O)C2=C(O)CCCC2=O)c1=O [Compound 97, 5-[(2-hydroxy-6-oxo-1-cyclohexen-1-yl)carbonyl]-3-(2-methoxyethyl)-2-(3-thienyl)-4(3H)-pyrimidinone]","Foxtail, Giant plant response rating (0 to 100 scale)",[1]; [11],75
same,pest or weed control at 31 g/ha,"[1]; Setaria faberi, post-emergence, 31 g ai/ha, postemergence, scale 0 to 100, 0 is no effect, 100 is complete control, read-out: Plant response rating, Foxtail, Giant",60%
same,pest or weed control at 250 g/ha,"[1]; Setaria faberi, post-emergence, Postemergence, 250 g ai/ha, scale 0 to 100 (0 no effect, 100 complete control), read-out: Plant response rating, Foxtail, Giant",90%
same,"Ryegrass, Italian plant response rating (0 to 100 scale)",[2]; [11],0
same,pest or weed control at 31 g/ha,"[2]; Lolium multiflorum, post-emergence, 31 g ai/ha, postemergence, scale 0 to 100, 0 is no effect, 100 is complete control, read-out: Plant response rating, Ryegrass, Italian",0%
same,pest or weed control at 250 g/ha,"[2]; Lolium multiflorum, post-emergence, Postemergence, 250 g ai/ha, scale 0 to 100 (0 no effect, 100 complete control), read-out: Plant response rating, Ryegrass, Italian",5%
same,Ragweed plant response rating (0 to 100 scale),[3]; [11],98
same,pest or weed control at 31 g/ha,"[3]; Ambrosia artemisiifolia, post-emergence, 360 h, 31 g ai/ha, postemergence, scale 0 to 100, 0 is no effect, 100 is complete control, read-out: Plant response rating, Ragweed",85%
same,pest or weed control at 250 g/ha,"[3]; Ambrosia artemisiifolia, post-emergence, 360 h, Postemergence, 250 g ai/ha, scale 0 to 100 (0 no effect, 100 complete control), read-out: Plant response rating, Ragweed",100%
same,pest or weed control at 250 g/ha,"[4]; Cyperus difformis, 360 h, 250 g ai/ha, flooded paddy test, visual rating on 0 to 100 scale (0 no effect, 100 complete control) after 13 to 15 days, read-out: Plant response rating, Flood, Sedge, Umbrella",80%
same,pest or weed control at 62 g/ha,"[4]; Cyperus difformis, 360 h, Flood (flooded paddy test), 62 g ai/ha, scale of 0 to 100 where 0 is no effect and 100 is complete control, 13 to 15 days, read-out: Plant response rating, Sedge, Umbrella",40%
same,pest or weed control at 125 g/ha,"[4]; Cyperus difformis, 360 h, Flood (flooded paddy test), 125 g ai/ha, scale 0 to 100, 0 is no effect, 100 is complete control, 13 to 15 days, read-out: Plant response rating, Sedge, Umbrella",70%
same,"Sedge, Umbrella plant response rating",[4],30
same,pest or weed control at 250 g/ha,"[5]; Echinochloa crus-galli, 360 h, 250 g ai/ha, flooded paddy test, visual rating on 0 to 100 scale (0 no effect, 100 complete control) after 13 to 15 days, read-out: Plant response rating, Flood, Barnyardgrass",75%
same,pest or weed control at 62 g/ha,"[5]; Echinochloa crus-galli, 360 h, Flood (flooded paddy test), 62 g ai/ha, scale of 0 to 100 where 0 is no effect and 100 is complete control, 13 to 15 days, read-out: Plant response rating, Barnyardgrass",40%
same,pest or weed control at 125 g/ha,"[5]; Echinochloa crus-galli, 360 h, Flood (flooded paddy test), 125 g ai/ha, scale 0 to 100, 0 is no effect, 100 is complete control, 13 to 15 days, read-out: Plant response rating, Barnyardgrass",60%
same,Barnyardgrass plant response rating,[5],30
same,Ducksalad plant response rating,[6],30
same,pest or weed control at 250 g/ha,"[6]; Heteranthera limosa, 360 h, 250 g ai/ha, flooded paddy test, visual rating on 0 to 100 scale (0 no effect, 100 complete control) after 13 to 15 days, read-out: Plant response rating, Flood, Ducksalad",70%
same,pest or weed control at 62 g/ha,"[6]; Heteranthera limosa, 360 h, Flood (flooded paddy test), 62 g ai/ha, scale of 0 to 100 where 0 is no effect and 100 is complete control, 13 to 15 days, read-out: Plant response rating, Ducksalad",30%
same,pest or weed control at 125 g/ha,"[6]; Heteranthera limosa, 360 h, Flood (flooded paddy test), 125 g ai/ha, scale 0 to 100, 0 is no effect, 100 is complete control, 13 to 15 days, read-out: Plant response rating, Ducksalad",30%
same,Rice plant response rating,rice (Oryza sativa),0
same,plant injury at 250 g/ha,"rice (Oryza sativa); Oryza sativa, 250 g ai/ha, flooded paddy test, visual rating on 0 to 100 scale (0 no effect, 100 complete control) after 13 to 15 days, read-out: Plant response rating, Flood, Rice",40%
same,plant injury at 62 g/ha,"rice (Oryza sativa); Oryza sativa, Flood (flooded paddy test), 62 g ai/ha, scale of 0 to 100 where 0 is no effect and 100 is complete control, 13 to 15 days, read-out: Plant response rating, Rice",0%
same,plant injury at 125 g/ha,"rice (Oryza sativa); Oryza sativa, Flood (flooded paddy test), 125 g ai/ha, scale 0 to 100, 0 is no effect, 100 is complete control, 13 to 15 days, read-out: Plant response rating, Rice",0%
same,Canarygrass plant response rating (0 to 100 scale),[7]; [11],10
same,pest or weed control at 31 g/ha,"[7]; Phalaris minor, post-emergence, 360 h, 31 g ai/ha, postemergence, scale 0 to 100, 0 is no effect, 100 is complete control, read-out: Plant response rating, Canarygrass",0%
same,pest or weed control at 125 g/ha,"[7]; Phalaris minor, post-emergence, 360 h, Postemergence, 125 g ai/ha, visual rating after 13 to 15 days, scale 0 (no effect) to 100 (complete control)",10%
same,pest or weed control at 250 g/ha,"[7]; Phalaris minor, post-emergence, 360 h, Postemergence, 250 g ai/ha, scale 0 to 100 (0 no effect, 100 complete control), read-out: Plant response rating, Canarygrass",30%
same,Windgrass plant response rating (0 to 100 scale),[8]; [11],50
same,pest or weed control at 31 g/ha,"[8]; Apera spica-venti, post-emergence, 360 h, 31 g ai/ha, postemergence, scale 0 to 100, 0 is no effect, 100 is complete control, read-out: Plant response rating, Windgrass",5%
same,pest or weed control at 250 g/ha,"[8]; Apera spica-venti, post-emergence, 360 h, Postemergence, 250 g ai/ha, scale 0 to 100 (0 no effect, 100 complete control), read-out: Plant response rating, Windgrass",85%
same,Chickweed plant response rating (0 to 100 scale),[9]; [11],100
same,pest or weed control at 31 g/ha,"[9]; Stellaria media, post-emergence, 360 h, 31 g ai/ha, postemergence, scale 0 to 100, 0 is no effect, 100 is complete control, read-out: Plant response rating, Chickweed",95%
same,pest or weed control at 125 g/ha,"[9]; Stellaria media, post-emergence, 360 h, Postemergence, 125 g ai/ha, visual rating after 13 to 15 days, scale 0 (no effect) to 100 (complete control)",100%
same,pest or weed control at 250 g/ha,"[9]; Stellaria media, post-emergence, 360 h, Postemergence, 250 g ai/ha, scale 0 to 100 (0 no effect, 100 complete control), read-out: Plant response rating, Chickweed",100%
same,Barley plant response rating (0 to 100 scale),[10]; [11],0
same,plant injury at 31 g/ha,"[10]; Hordeum vulgare, post-emergence, 31 g ai/ha, postemergence, scale 0 to 100, 0 is no effect, 100 is complete control, read-out: Plant response rating, Barley",0%
same,plant injury at 125 g/ha,"[10]; Hordeum vulgare, post-emergence, Postemergence, 125 g ai/ha, visual rating after 13 to 15 days, scale 0 (no effect) to 100 (complete control)",0%
same,plant injury at 250 g/ha,"[10]; Hordeum vulgare, post-emergence, Postemergence, 250 g ai/ha, scale 0 to 100 (0 no effect, 100 complete control), read-out: Plant response rating, Barley",5%
CCCn1c(-c2cccc(OC)c2)ncc(C(=O)C2=C(O)CCCC2=O)c1=O [Compound 100],"Plant response rating, Foxtail, Giant",[1]; [12],70
same,"Foxtail, Giant plant response rating (0 to 100 scale)",[1]; [11],75
same,"Plant response rating, Foxtail, Giant",[1]; [13],80
same,"Plant response rating, Foxtail, Giant",[1]; [14],85
same,"Ryegrass, Italian plant response rating (0 to 100 scale)",[2]; [11],5
same,"Plant response rating, Ryegrass, Italian",[2]; [13],10
same,"Plant response rating, Ryegrass, Italian",[2]; [14],50
same,Ragweed plant response rating (0 to 100 scale),[3]; [11],70
same,"Plant response rating, Ragweed",[3]; [13],75
same,"Plant response rating, Ragweed",[3]; [14],80
same,"Plant response rating, Flood, Sedge, Umbrella",[4]; [15],85
same,"Plant response rating, Sedge, Umbrella",[4]; [16],75
same,"Plant response rating, Sedge, Umbrella",[4]; [17],80
same,"Sedge, Umbrella plant response rating",[4],40
same,"Plant response rating, Flood, Barnyardgrass",[5]; [15],75
same,"Plant response rating, Barnyardgrass",[5]; [16],45
same,"Plant response rating, Barnyardgrass",[5]; [17],60
same,Barnyardgrass plant response rating,[5],20
same,"Plant response rating, Flood, Ducksalad",[6]; [15],85
same,"Plant response rating, Ducksalad",[6]; [16],75
same,"Plant response rating, Ducksalad",[6]; [17],85
same,Ducksalad plant response rating,[6],35
same,"Plant response rating, Rice",rice (Oryza sativa); [16],30
same,"Plant response rating, Rice",rice (Oryza sativa); [17],35
same,Rice plant response rating,rice (Oryza sativa),0
same,"Plant response rating, Canarygrass",[7]; [12],0
same,Canarygrass plant response rating (0 to 100 scale),[7]; [11],5
same,"Plant response rating, Canarygrass",[7]; [13],5
same,"Plant response rating, Canarygrass",[7]; [14],10
same,Windgrass plant response rating (0 to 100 scale),[8]; [11],40
same,"Plant response rating, Windgrass",[8]; [13],45
same,"Plant response rating, Chickweed",[9]; [12],75
same,Chickweed plant response rating (0 to 100 scale),[9]; [11],75
same,"Plant response rating, Chickweed",[9]; [13],95
same,"Plant response rating, Chickweed",[9]; [14],100
same,"Plant response rating, Barley",[10]; [12],5
same,Barley plant response rating (0 to 100 scale),[10]; [11],20
same,"Plant response rating, Barley",[10]; [13],30
same,"Plant response rating, Barley",[10]; [14],50
